Test results taken from patent US20260078119A1, “DEGRADER COMPOUNDS AND USES THEREOF” (Bristol-Myers Squibb Company, priority 2024, published 2026).

Assays:
[1] = molecular target: T1, FAK (Homo sapiens, UniProt Q05397); assay: FAK-HiBiT Degradation Assay; assay type: cell-based; settings: for DC50: JHH-4-FAK-HiBiT clone d01 cells, two hours incubation, 10-point dose response, 3-fold dilution starting at 1 μM, Nano-Glo HiBiT luminescence, read-out: FAK HiBiT EC50; for FAK HiBiT Ymin: lower limit of the four parameter fit (value A), Ymax derived using DMSO control, JHH-4-FAK-HiBiT cells, two hours
T1 construct: homozygous knock-in of a HiBiT tag (Promega Corporation, Madison, WI) to the C-terminus of the FAK gene in its natural genomic locus; endogenous in cells; host or cells: JHH-4-FAK-HiBiT clone d01 (CRISPR-Cas9 knock-in at the endogenous locus)
In short: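 Degradation read out by HiBiT lytic luminescence after 2 h compound exposure (top concentration 1 μM, 3-fold, 10 points) in JHH-4 clone d01 bearing endogenous FAK-HiBiT knock-in. Four-parameter logistic fit gave EC50 and Ymin; DMSO wells defined Ymax.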

[2] = system: CAL-51 cells; assay: CAL-51 Cell Proliferation Assay; assay type: cell-based; settings: for EC50: Homo sapiens, 120 hours incubation, 10-point dose response, 4-fold dilutions starting at 10 μM, Cell-Titer-Glo, read-out: CAL-51 Prolif EC50; for CAL-51 Prolif Ymin: minimal percent of DMSO control observed in the concentrations tested (Ymin-obs), 120 hours
In short: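 EC50 comes from a four-parameter logistic fit of blank-corrected, DMSO-normalised CellTiter-Glo signal after 120 h growth (37 °C, 350 cells/well, RPMI complete medium). Compounds ran as 10-point 4-fold series starting at 10 μM, duplicate, 0.1% DMSO. Ymin-obs records the minimal percent of DMSO control observed.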

T1 sequence (Q05397 whole entry): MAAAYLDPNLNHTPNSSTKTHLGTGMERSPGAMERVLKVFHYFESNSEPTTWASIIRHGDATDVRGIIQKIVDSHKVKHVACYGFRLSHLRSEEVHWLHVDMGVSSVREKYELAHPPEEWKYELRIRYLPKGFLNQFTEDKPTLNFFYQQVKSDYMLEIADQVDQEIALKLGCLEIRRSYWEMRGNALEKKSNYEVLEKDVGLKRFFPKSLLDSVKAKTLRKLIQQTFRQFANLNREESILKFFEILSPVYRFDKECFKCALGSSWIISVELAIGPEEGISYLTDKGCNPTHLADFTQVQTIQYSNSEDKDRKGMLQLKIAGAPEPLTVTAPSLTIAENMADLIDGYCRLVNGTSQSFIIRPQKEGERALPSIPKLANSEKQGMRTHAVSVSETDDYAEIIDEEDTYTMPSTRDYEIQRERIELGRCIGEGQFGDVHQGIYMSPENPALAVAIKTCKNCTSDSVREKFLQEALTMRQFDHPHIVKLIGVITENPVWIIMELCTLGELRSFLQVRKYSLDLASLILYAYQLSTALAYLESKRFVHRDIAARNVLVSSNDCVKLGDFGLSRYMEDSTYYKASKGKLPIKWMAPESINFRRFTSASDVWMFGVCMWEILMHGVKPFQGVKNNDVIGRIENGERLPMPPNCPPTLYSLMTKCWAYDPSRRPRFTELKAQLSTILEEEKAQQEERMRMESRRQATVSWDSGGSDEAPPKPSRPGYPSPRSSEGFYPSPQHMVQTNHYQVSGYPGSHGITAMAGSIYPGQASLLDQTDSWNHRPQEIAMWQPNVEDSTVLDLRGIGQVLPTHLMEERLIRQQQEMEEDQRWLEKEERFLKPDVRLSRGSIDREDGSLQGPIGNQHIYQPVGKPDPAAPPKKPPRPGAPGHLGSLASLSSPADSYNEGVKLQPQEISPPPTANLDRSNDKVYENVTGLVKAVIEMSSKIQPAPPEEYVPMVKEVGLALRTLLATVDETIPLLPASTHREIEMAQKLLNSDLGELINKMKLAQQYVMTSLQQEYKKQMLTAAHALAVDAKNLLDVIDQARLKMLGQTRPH

Row | Compound | DC50 [1] [nM] | FAK HiBiT Ymin [1] | EC50 [2] [nM] | CAL-51 Prolif Ymin [2]
1 | Cc1cc(Cl)cnc1-c1c(F)c(N2CC(F)C2)nc2c1cnn2Cc1ccc2c(c1)CN(C1CCC(=O)NC1=O)C2=O (stereo not drawn) [Example 37, 3-(5-{[4-(5-chloro-3-methylpyridin-2-yl)-5-fluoro-6-(3-fluoroazetidin-1-yl)-1H-pyrazolo[3,4-b]pyridin-1-yl]methyl}-1-oxo-2,3-dihydro-1H-isoindol-2-yl)piperidine-2,6-dione] | 0.98 | 7.33 | 0.6 | 19.81
2 | O=C1CCC(N2Cc3cc(Cn4ncc5c(-c6ncc(C(F)(F)F)cc6Cl)cc(N6CC(F)C6)nc54)cc(F)c3C2=O)C(=O)N1 (stereo not drawn) [Example 33, 3-[5-({4-[3-chloro-5-(trifluoromethyl)pyridin-2-yl]-6-(3-fluoroazetidin-1-yl)-1H-pyrazolo[3,4-b]pyridin-1-yl}methyl)-7-fluoro-1-oxo-2,3-dihydro-1H-isoindol-2-yl]piperidine-2,6-dione] | 0.91 | 5.36 | 0.51 | 26.78
3 | O=C1CC[C@H](N2Cc3cc(Cn4ncc5c(-c6ncc(C7COC7)cc6Cl)cc(N6CC(F)C6)nc54)ccc3C2=O)C(=O)N1 (single isomer, unassigned) [Example 108] | 40.5 | 13.46 | 18.2 | 28.68
4 | O=C1CCC(N2Cc3cc(Cn4ncc5c(-c6ncc(OCC(F)(F)F)cc6Cl)cc(N6CC(F)C6)nc54)ccc3C2=O)C(=O)N1 (stereo not drawn) [Example 59, 3-[5-({4-[3-chloro-5-(2,2,2-trifluoroethoxy)pyridin-2-yl]-6-(3-fluoroazetidin-1-yl)-1H-pyrazolo[3,4-b]pyridin-1-yl}methyl)-1-oxo-2,3-dihydro-1H-isoindol-2-yl]piperidine-2,6-dione] | 3.54 | 10.50 | 0.87 | 28.60

Now from value to compound, other results behind:

Row | DC50 [1] [nM] | FAK HiBiT Ymin [1] | Compound | EC50 [2] [nM] | CAL-51 Prolif Ymin [2]
5 | 6.35 | 7.12 | O=C1CC[C@H](N2Cc3cc(Cn4ncc5c(-c6ncc(CF)cc6Cl)cc(N6CC(F)C6)nc54)ccc3C2=O)C(=O)N1 [Example 72, (3S)-3-[5-({4-[3-chloro-5-(fluoromethyl)pyridin-2-yl]-6-(3-fluoroazetidin-1-yl)-1H-pyrazolo[3,4-b]pyridin-1-yl}methyl)-1-oxo-2,3-dihydro-1H-isoindol-2-yl]piperidine-2,6-dione] | 1.78 | 23.41
6 | 7.97 | 9.51 | O=C1CC[C@H](N2Cc3nc(Cn4ncc5c(-c6ncc(C(F)(F)F)cc6Cl)cc(N6CC(F)C6)nc54)ccc3C2=O)C(=O)N1 [Example 76, (3S)-3-[2-({4-[3-chloro-5-(trifluoromethyl)pyridin-2-yl]-6-(3-fluoroazetidin-1-yl)-1H-pyrazolo[3,4-b]pyridin-1-yl}methyl)-5-oxo-5H,6H,7H-pyrrolo[3,4-b]pyridin-6-yl]piperidine-2,6-dione] | 6.15 | 34.59
